Data set [1] relates to matrix metalloproteinase-9. The experiment in a line: RT-PCR, MMP-9 gene expression in HT 1080 cells. It counts as cell-based, Human. The procedure:
7. RNA Extraction and Reverse Transcription-Polymerase Chain Reaction (RT-PCR)
HT 1080 cells with appropriate cell numbers were cultured in 60 mm culturing plates for 6 hours, respectively. After the cells were attached onto the bottom of the plate and formed a monolayer, the medium in the plate was removed. Fresh serum free mediums with different concentrations of a test sample were added to the plates, respectively, and 100 nM PMA was added to each plate to induce the cells to express great quantities of matrix metalloproteinase-2 and matrix metalloproteinase-9, and the plates were placed in a temperature of 37° C. for 6 hours. After that, the total RNA of the cells were extracted with the TRIzol reagent and reverse transcripted by a reverse transcriptase to synthesize cDNA. The synthesize cDNA was used as a template to perform GADPH, matrix metalloproteinase-2 and matrix metalloproteinase-9 PCR amplifications.

The next data set has as its system HT 1080 cells. The experiment in a line: Invasion assay (Matrigel transwell). Type of data set: cell-based, Human. The procedure:
10. Invasion Assay (Lee et al., 2005; Huang et al., 2005; Park et al., 2005)
HT 1080 cells were used to prepare a cell suspension with an appropriate concentration by a fresh serum free medium and than placed in each upper chamber of each transwell (BD Matrigel™ Invasion Chamber 24-Well Plate 8.0 Micron). Fresh serum containing mediums with different concentrations of a test drug were added to the lower chambers of the transwells, respectively. The transwells were placed in an incubator containing 5% CO2 at 37° C. for 18 hours. After that, the medium in the upper chamber was removed and cells on the upper surface of the membrane of the transwell were wiped by a cotton swab. Finally, the cells were fixed and stained. The calculation for the invasion rate of the cells was:
Ne: Numbers of cells crossing the membrane Nc: Numbers of total cells

The subject of data set [2] is matrix metalloproteinase-9. The experiment in a line: Gelatin gel zymography of PMA-induced HT 1080 cells, MMP-9 activity. Type of data set: cell-based, Human. The procedure:
4. Gelatin Gel Zymography (Shim et al., 2003; Park et al., 2005; Hwang et al., 2006)
HT 1080 cells with appropriate cell numbers were cultured in 60 mm culturing plates for 12 hours, respectively. After the cells were attached onto the bottom of the plate and formed a monolayer, the medium in the plate was removed. Fresh serum free mediums with different concentrations of a test sample were added to the plates, respectively, and 100 nM PMA was added to each plate to induce the cells to express great quantities of matrix metalloproteinase-2 and matrix metalloproteinase-9, and the plates were placed in a temperature of 37° C. for 24 hours. After centrifugation, each cultured supernatant were saved and mixed with SDS-sample buffer under the same protein contents which were then injected into a 10% SDS-polyacrylamide gel (containing 1 mg/ml gelatin) and then electrophoresed. After the electrophoresis was completed, the gel was taken out and washed with 20 mM Tris-HCl containing 25% isopropanol three times; 10 minutes per time. Then the gel was equilibrated with 20 mM Tris-HCl for 30 minutes, and finally an incubate buffer (5 mM CaCl2 and 1 mM ZnCl2) was added to the gel and reacted with the gel overnight. Then the gel was stained with coomassie blue, and positions having matrix metalloproteinase activity of the gel presented a white color.

The next data set concerns B16-F10 cell line. The data set is described as follows: Tumor metastasis in an animal model (lung metastasis induced by B16-F10). Type of data set: in vivo, C57BL/6 mice. The following applies: mice, 50 mg/kg/day, 21 days. The method, then:
12. Tumor Metastasis in an Animal Model (Itoh et al., 2005; Lee et al., 2005; Ouyang et al., 2005; Zhang et al., 2005)
Experimental animal: C57BL/6, gray-brown fur
C57BL/6 mice were injected with 2×10^5 cells/0.1 ml of a B16-F10 cell line by a tail intravenous injection. Then, on the next day the mice were injected with a physiological saline solution or 50 mg/kg drug, daily, for 3 weeks. The mice were sacrificed and their lungs were removed at the third week. The lungs were washed with a PBS buffer and fixed with Bouin's solution.

Data set [3] has as its system human umbilical vein endothelial cells. The experiment in a line: Cell viability assay of human umbilical vein endothelial cells. It counts as cell-based. The following applies: 24 hours. The method, then: A medium in a culturing plate containing cells grown covering the whole bottom of the culturing plate, was removed. The cells were washed with 10 ml of PBS, and then suspended and mixed well with 10 ml of medium (a part of the cells need to be suspended with Trypsin-EDTA buffer). The numbers of the cells were calculated by a hemocytometer, and the cells were diluted to an appropriate cell concentration and added into the wells of a 24 well culturing plate by an amount of 500 μl/well. The 24 well culturing plates were placed in an incubator at 37° C. in a humidified atmosphere containing 5% CO2. After the cells were attached onto the bottom of the wells, the medium in each well was removed, and fresh mediums with different concentrations of a test drug were added into wells, respectively (if the cells were suspension cells, the fresh medium may be added into the wells, directly). Then, the 24 well culturing plates were placed in an incubator at 37° C. in a humidified atmosphere containing 5% CO2 for 24 hours. After that, an upper medium in each well was removed. The cells were washed with a PBS buffer twice, and then an MTT solution which was prepared with a medium was added to each well. After the 24 well culturing plates were placed in an incubator at 37° C. for reacting 4-6 hours, an upper medium in each well was removed, and 100 μl of DMSO was added to each well to solubilize the formazan precipitates. After that, an ELISA reader was used to determine the absorbance for each well at 600 nm.
After human umbilical vein endothelial cells were treated with the different concentrations of L-Aspartic acid β-hydroxamate (CH) and different concentrations of L-Glutamic acid γ-hydroxamate (DH) for 24 hours, respectively, the cell viability assays were performed to the treated human umbilical vein endothelial cells and the angiogenesis conditions of the human umbilical vein endothelial cells were recorded. The results of the cell viability assays are shown as FIGS. 13 (A) and 14 (A). Photographs for the human umbilical vein endothelial cells treated with L-Aspartic acid β-hydroxamate (CH) and human umbilical vein endothelial cells treated with L-Glutamic acid γ-hydroxamate (DH) are shown as FIGS. 13 (B) and 14 (B), respectively.

Where [4] appears, read: about 0.1-2 mM, stated as embodiment, 'and/or' MMP-2.

Each structure is given as a SMILES string. pIC50: −log10 of the molar value.

One may read the pIC50 as the IC50 on a negative log10 scale, so that one unit is a factor of ten. Take `NC(CCC(=O)NO)C(=O)O` [DH, L-Glutamic acid γ-hydroxamate]: in data set [1] (HT 1080 cells, 0.4, 0.8, 1.2, and 1.6, 6 hours, RT-PCR), the “gene expression (mRNA) of matrix metalloproteinase-9” value is “decreased”. For the same compound, the “inhibition rate to the gene transcriptional expression of matrix metalloproteinase-9 of a cancer cell” value in data set [1] (setting [4]) is given as 20-80%. Moreover, in the data set on HT 1080 cells (Homo sapiens, HT-1080, 0.8, 1.6 and 2.4 mM, 18 hours, read-out: IC50 HT 1080 crossing membrane to the lower chamber (invasion)), the pIC50 was 2.90. Also, the “inhibition rate to cancer cell invasion” value in the data set on HT 1080 cells (about 0.1-3 mM, stated as embodiment) is 40-85%. Besides, the “protein activity of matrix metalloproteinase-9 secreted out of and left in HT 1080 cells” value in data set [2] (0.4, 0.8, 1.2, and 1.6, 24 hours) is recorded as “also decreased”. Moreover, in data set [2] (HT 1080 cells treated 24 hours), the “inhibition rate to the activity of matrix metalloproteinase-9” value is given as “greater than 50%”. Besides, the “matrix metalloproteinase-9 inhibiting activity” value in data set [2] (HT 1080 cells, 0.4, 0.8, 1.2 and 1.6 mM, 24 hours) is listed as “increased while the concentration thereof was increased”. For the same compound, the “inhibition rate to the protein activity of matrix metalloproteinase-9 of a cancer cell” value in data set [2] (setting [4]) was 40-70%. Also, in the data set with B16-F10 cell line, the “lung metastasis and amount of metastasized pulmonary nodules” value is “significantly decreased”; the lung weight result is given as “recovered to a level similar to that of the control group”; the “pathological symptoms (fur picking, weight loss, hind limb debility) due to cancer metastasis, compared to blank group” value is on record as “decreased”. Besides, in the data set on B16-F10 cell line (blank group 2 of 6 survived), the “survival till the end of the experiment” value is given as “six mice all survived”. In data set [3] (0.25 mM), the “cytotoxicity to human umbilical vein endothelial cells” value is “no cytotoxicity”. In data set [3] (0.75 mM), the “viability of human umbilical vein endothelial cells” value is recorded as “slight decreases”.

Values taken from patent US20120101163A1, “COMPOSITION FOR INHIBITING CANCER METASTASIS” (TAIPEI MEDICAL UNIVERSITY, priority 2010, published 2012).
